Measured values published in patent US8436210B2, “Amide compound and bacterial disease control agent for agricultural and horticultural use” (The University of Tokyo, priority 2007, dated 2013).

Experiments:
Burkholderia glumae [1] = experiment: Test Example 3: onset of Burkholderia glumae infection on rice sprayed with test liquid; format: in vivo; conditions: for percentage of flower clusters with score 0: score 0 = less than 0.1% onset; for percentage of flower clusters with score 0 / percentage of flower clusters with score 1 / percentage of flower clusters with score 2 / percentage of flower clusters with score 3 / percentage of flower clusters with score 4 / percentage of flower clusters with score 5: Korean rice (Milyang 23), 7 days, infection broth sprayed 1 h after treatment; for percentage of flower clusters with score 1: score 1 = 0.1% to 20% onset; for percentage of flower clusters with score 2: score 2 = 20% to 40% onset; for percentage of flower clusters with score 3: score 3 = 40% to 60% onset; for percentage of flower clusters with score 4: score 4 = 60% to 80% onset; for percentage of flower clusters with score 5: score 5 = 80% to 100% onset
Experimental: Each test liquid (10 mL) was sprayed onto Korean rice ([…] 23) raised in a hothouse until the flowering stage. The broth for infection was sprayed onto the rice one hour after the application of the test liquid. After cultivation for seven days, the onset of Burkholderia glumae infection on the rice was evaluated in the same manner as in Test Example 2. The same evaluation was conducted as the comparative test in the same manner except that water was used instead of the test liquid. Further, the same evaluation was conducted to serve as a blank using water instead of both the test liquid and the broth for infection.

Burkholderia glumae [2] = experiment: Test Example 2: onset of Burkholderia glumae infection on rice sprayed with test liquid; format: in vivo; conditions: for percentage of flower clusters with score 0 / percentage of flower clusters with score 1 / percentage of flower clusters with score 2 / percentage of flower clusters with score 3 / percentage of flower clusters with score 4 / percentage of flower clusters with score 5: Korean rice (Milyang 23), 7 days; for percentage of flower clusters with score 1: score 1 = 0.1% to 20% onset; for percentage of flower clusters with score 2: score 2 = 20% to 40% onset; for percentage of flower clusters with score 3: score 3 = 40% to 60% onset; for percentage of flower clusters with score 4: score 4 = 60% to 80% onset; for percentage of flower clusters with score 5: score 5 = 80% to 100% onset
Experimental: […] In a separate procedure, Burkholderia glumae were seeded to an LB culture medium and cultured overnight at 37° C., preparing an broth for infection.
Each test liquid (10 mL) was sprayed onto Korean rice (Milyang 23) raised in a hothouse until the flowering stage. The broth for infection was sprayed onto the rice one hour after the application of the test liquid. After cultivation for seven days, the onset of Burkholderia glumae infection on the rice was evaluated.
The evaluation was conducted by picking an ear from each plant, making a total of three ears. In each flower cluster (grain), the percentage of the portion that suffered from the onset of infection (i.e., the portion that turned brown) caused by the toxoflavin produced by Burkholderia glumae was visually observed and scored based on the scale shown below. The percentage of the total flower clusters was obtained and scored to indicate the onset of the infection.
The percentage that suffered from the onset of infection:
Not less than 0.1% and not greater than 20%: 1
Not less than 20% and not greater than 40%: 2
Not less than 40% and not greater than 60%: 3
Not less than 60% and not greater than 80%: 4
In this evaluation, three flower clusters (grains) having the same conditions were prepared, and reproducibility was confirmed by repeating the same evaluation three times. The same evaluation was also conducted as a comparative test except that water was used instead of the test liquid. Further, the same evaluation was conducted to serve as a blank except that water was used instead of both the test liquid and the broth for infection.

Burkholderia glumae [3] = experiment: Test Example 1: toxoflavin (toxin) production by Burkholderia glumae in LB culture; format: cell-based; conditions: for toxin doses (toxoflavin) produced by bacteria as concentration of compound increased: 0, 20, 40, 60, 80 or 100 μM, shake culturing 20 hours, LB medium, FIG. 1
Experimental: Burkholderia glumae was inoculated into an LB culture medium (produced by BD, Difco LB Broth: containing tryptone (10.0 g), yeast extract (5.0 g), and sodium chloride (10.0 g)), and cultured at 37° C. overnight. The broth thus obtained was subjected to bacterial collection using a centrifuge, and the collected bacteria were washed with an LB culture medium twice using a fresh LB culture medium each time. A fresh LB culture medium was added to the bacteria, and then Compound (1a-3) produced in Production Example 3 was added thereto in such a manner that its final concentration became a predetermined value (i.e., 0, 20, 40, 60, 80 or 100 μM), followed by shake culturing for 20 hours. The amount of toxoflavin produced by the bacteria in the broth was obtained by the following procedure.
Each broth was filtered by a 0.22-μm membrane filter, and 1 mL of the filtrate was isolated. One mL of chloroform was added to the filtrate, followed by extraction. The thus-obtained chloroform layer was concentrated under reduced pressure, and an 80% (V/V) aqueous methanol solution was added to and dissolved in the residue. The absorbance (at 260 nm) of the solution was measured, and the toxin doses were calculated from the calibration curve, which was obtained using a chemically synthesized standard toxin.
The same test was conducted as a comparative test using the compound (comparative compound) shown by the formula below disclosed in Patent Document 1.

Structure (SMILES): CCCCCCCC(=O)NC1=CC(=O)CCC1 [Compound (1a-3), N-(3-oxo-cyclohexen-1-yl)octanamide]
- percentage of flower clusters with score 0 (Burkholderia glumae [1]; 50 μM spray): 62%
- percentage of flower clusters with score 1 (Burkholderia glumae [1]; 50 μM spray): 15%
- percentage of flower clusters with score 2 (Burkholderia glumae [1]; 50 μM spray): 19%
- percentage of flower clusters with score 3 (Burkholderia glumae [1]; 50 μM spray): 2%
- percentage of flower clusters with score 4 (Burkholderia glumae [1]; 50 μM spray): 1%
- percentage of flower clusters with score 5 (Burkholderia glumae [1]; 50 μM spray): 1%
- percentage of flower clusters with score 0 (Burkholderia glumae [1]; 100 μM spray): 82%
- percentage of flower clusters with score 1 (Burkholderia glumae [1]; 100 μM spray): 9%
- percentage of flower clusters with score 2 (Burkholderia glumae [1]; 100 μM spray): 7%
- percentage of flower clusters with score 3 (Burkholderia glumae [1]; 100 μM spray): 1%
- percentage of flower clusters with score 4 (Burkholderia glumae [1]; 100 μM spray): 1%
- percentage of flower clusters with score 5 (Burkholderia glumae [1]; 100 μM spray): 0%
- percentage of flower clusters with score 0 (Burkholderia glumae [1]; 150 μM spray): 89%
- percentage of flower clusters with score 1 (Burkholderia glumae [1]; 150 μM spray): 8%
- percentage of flower clusters with score 3 (Burkholderia glumae [1]; 150 μM spray): 1%
- percentage of flower clusters with score 2 (Burkholderia glumae [1]): 1%
- percentage of flower clusters with score 4 (Burkholderia glumae [1]): 1%
- percentage of flower clusters with score 5 (Burkholderia glumae [1]): 0%
- onset of Burkholderia glumae on rice (Burkholderia glumae [1]; test liquid sprayed onto rice, then broth for infection, Table 2 and FIG. 3): prevented
- percentage of flower clusters with score 0 (Burkholderia glumae [2]; 50 μM spray, score 0 = less than 0.1% of portion with onset of infection): 73%
- percentage of flower clusters with score 1 (Burkholderia glumae [2]; 50 μM spray): 20%
- percentage of flower clusters with score 2 (Burkholderia glumae [2]; 50 μM spray): 6%
- percentage of flower clusters with score 3 (Burkholderia glumae [2]; 50 μM spray): 1%
- percentage of flower clusters with score 4 (Burkholderia glumae [2]; 50 μM spray): 0%
- percentage of flower clusters with score 5 (Burkholderia glumae [2]; 50 μM spray): 0%
- percentage of flower clusters with score 0 (Burkholderia glumae [2]; 100 μM spray, score 0 = less than 0.1% onset): 85%
- percentage of flower clusters with score 1 (Burkholderia glumae [2]; 100 μM spray): 10%
- percentage of flower clusters with score 2 (Burkholderia glumae [2]; 100 μM spray): 3%
- percentage of flower clusters with score 3 (Burkholderia glumae [2]; 100 μM spray): 0%
- percentage of flower clusters with score 4 (Burkholderia glumae [2]; 100 μM spray): 1%
- percentage of flower clusters with score 5 (Burkholderia glumae [2]; 100 μM spray): 1%
- percentage of flower clusters with score 0 (Burkholderia glumae [2]; 150 μM spray, score 0 = less than 0.1% onset): 84%
- percentage of flower clusters with score 1 (Burkholderia glumae [2]; 150 μM spray): 9%
- percentage of flower clusters with score 4 (Burkholderia glumae [2]; 150 μM spray): 1%
- percentage of flower clusters with score 5 (Burkholderia glumae [2]; 150 μM spray): 1%
- percentage of flower clusters with score 2 (Burkholderia glumae [2]): 4%
- percentage of flower clusters with score 3 (Burkholderia glumae [2]): 1%
- onset of Burkholderia glumae on rice (Burkholderia glumae [2]; test liquid sprayed onto rice, then broth for infection, Table 1 and FIG. 2): prevented
- toxin doses (toxoflavin) produced by bacteria as concentration of compound increased (Burkholderia glumae [3]): remarkably decreased

Structure (SMILES): CCCCCCCCCC(=O)CC(=O)Nc1ccccc1O [comparative compound]
- toxin doses (toxoflavin) produced by bacteria as concentration of compound increased (Burkholderia glumae [3]): almost no change
- control effect on bacterial infections (Burkholderia glumae [3]; statement in background referring to the Test Example): no control effect
